Results on three molecules are retold here after patent US9968585B2, “Prevention or treatment agent for cerebral amyloid beta storage diseases” (TOYAMA CHEMICAL CO., LTD., priority 2014, dated 2018).

Experiment [1] concerns patient with complication of AZD and CAA. Description: Clinical case, Example 1: patient with complication of AZD and CAA. It is filed as in vivo, human. From the text:
Patient
Family history: […] died of cerebral hemorrhage (type unknown) in his 50s. […]
Past history: deep white matter lesions (diagnosed by head MRI, T2-WI), lateral ventricular low density area (diagnosed by head CT), and moderate cerebral atrophy in the cerebral cortex including the hippocampus, parietal lobe, and frontal lobe and mild disturbance of memorization had been observed. However, there was no particular problem in everyday life.
History of present illness: person, walking difficulty (decreased speed and decreased stability of walking) appeared and then progressed slowly. Continuous walking of long distances of 600 m or more and walking with a heavy load (10 kg or more) in their hand or on their shoulder became difficult. Short-stepped gait and frontal gait appeared sometimes, with no fall. Cerebrovascular disorder was suspected and examinations by CT and MRI (other than T2-WI) were conducted. However, any responsible lesions, which were likely to develop relatively rapid walking difficulties, were not found, other than deep white matter lesions and moderate cerebral atrophy, which were observed previously. Parkinson's disease (syndrome) was also suspected and a therapeutic agent for the disease was temporarily administered, which was stopped because of the lack of efficacy. […] Instability of walking also progressed relatively rapidly and it became difficult to walk outdoor without a walking stick.
Meanwhile, MRI (T1/2WI, T2-WI) detected multiple micro-bleeding mainly in the area from bilateral basal ganglia (thalamus and hypothalamus) to upper brain stem and the patient was diagnosed with CAA. The patient was also diagnosed with AZD based on diffuse cerebral atrophy including hippocampus and a wide range of cerebral cortex and moderate dementia. […]
For walking, an assistance, or at least handrail, became always necessary and continuous walking of distances of 50 m or more became difficult (unstable) even with an assistance. Furthermore, the patient was frequently found in a somnolence state even in the daytime and occasional decrease in the level of consciousness during meal caused difficulty in swallowing. Standing and walking became impossible during a period of repeated high fever. Chest CT detected a sign of aspiration pneumonia and the patient was admitted to a nearby hospital.
Immediately after the hospitalization, administration of antibiotics against the pulmonary inflammatory disease was started and high dose administration of mineralocorticoid (200 mg injection of Hydrocortone/day, for 7 days in plan) was also started for the purpose of steroid supplementation against the potential hypoadrenalism (mineral imbalance), due to the previous sustained steroid (5 mg) therapy. […] On Day 9 after the hospitalization, the patient became almost bedridden and nonresponsive. On Day 10 after the hospitalization, administration of a high dose of glucocorticoid (30 mg/day of Predonine) for anti-inflammatory effect was therefore started for the purpose of ameliorating the cerebral hypofunction, based on the informed consent.
However, from Day 20 after the hospitalization, a somnolence tendency appeared again and the symptoms of decline of cognitive ability, inability to walk, lack of speech, urine incontinence, apraxia and agnosia appeared again.
Since no tendency to alleviate the symptoms was observed, on Day 22 after the hospitalization, administration of 25 mg of iguratimod (for example, the trade name “Kolbet” produced and sold as an antirheumatic drug by Taisho Toyama Pharmaceutical Co., Ltd. or the trade name “Careram” produced and sold by Eisai Co., Ltd.), in addition to the high dose glucocorticoid therapy, was started for the purpose of ameliorating cognitive impairment, walking impairment, decrease of energy and spontaneity, and aphasia, apraxia, and agnosia, based on the informed consent. […]

For experiment [2] the following is noted: compared with MTX and SASP; cited from earlier work.
For experiment [3], the system named is production of interleukin-1 and 6 (IL-1/6) and tumor necrosis factor (TNFα) from monocyte lineage cells (macrophages). The following applies: in inflammation; cited from earlier work.
Experiment [4] relates to patient with moderate dementia caused by AZD. Briefly: Clinical case, Example 2: patient with moderate dementia caused by AZD, not associated with CAA. It is filed as in vivo, human. Here is the method: A person became indifferent to social activities and meeting people 3 to 4 years ago. Cognitive impairment appeared to the degree to cause difficulty in daily life activities 2 years ago. One year ago, cognitive impairment further progressed and MMSE was conducted to get scores of 14 or less. Since a head imaging detected moderate atrophy in the cerebral cortex including the parietal lobe and the hippocampus, the patient was diagnosed with “moderate dementia caused by AZD” based on the clinical and brain imaging observations. In the everyday life, disturbance of memorization was observed, in which the patient forgot contents of conversation in 5 minutes and purchased the same thing repeatedly when they went out alone. The patient liked cooking previously, but became unable to cook or adjust the taste. […] The patient became unable to manage own medication such as an antihypertensive agent (cognitive impairment on table and calculation) and management by a family member became necessary. Since efficacy (suppression of progressive symptoms) of a conventional drug against AZD was not observed for a half year or more, the administration of iguratimod at 25 mg/day was started, based on the informed consent to the patient and their family, and the dose was increased to 50 mg/day 4 weeks later.

The mark [5] stands for this setting: 6 months after starting the administration.
Where [6] appears, read: at discharge, 2 months after starting the administration.

For `C[C@]12CCC(=O)C=C1CC[C@@H]1[C@@H]2[C@@H](O)C[C@@]2(C)[C@H]1CC[C@]2(O)C(=O)CO` [Hydrocortone], the “neurological symptoms (energy, speech, cognitive function, walking ability)” value in experiment [1] (200 mg injection/day, from 3 days after the start of the steroid replacement therapy) is “increase in energy and speech, amelioration of cognitive function, and improvement of walking ability were observed”. The neurological symptoms entry in experiment [1] (200 mg injection/day, from Day 5 to 6 after the start of administration) is reported as “the symptoms gradually aggravated”.
As for `C[C@]12C=CC(=O)C=C1CC[C@@H]1[C@@H]2[C@@H](O)C[C@@]2(C)[C@H]1CC[C@]2(O)C(=O)CO` [Predonine], the “neurological symptoms (somnolence, energy, speech, walking, meals)” value in experiment [1] (high dose glucocorticoid (30 mg/day of Predonine) started on Day 10 after hospitalization) was “alleviated a neurological symptom (decrease in somnolence), increased energy and speech”. In experiment [1] (sustained glucocorticoid therapy at maximum dose for the patient's age, for 10 days or more, symptoms reappeared from Day 20 after hospitalization), the “prevention of progression of the symptoms” value is recorded as “cannot prevent the progression of the symptoms”.
`CS(=O)(=O)Nc1cc2occ(NC=O)c(=O)c2cc1Oc1ccccc1` [iguratimod, N-(3-formamido-4-oxo-6-phenoxy-4H-chromen-7-yl) methanesulfonamide]: the “efficacy in rheumatoid arthritis” value in experiment [2] is “efficacy equivalent to MTX and SASP”. In experiment [3], the “effect on production of IL-1/6 and TNFα from monocyte lineage cells (macrophages)” value was “suppressing effects”. Also, in experiment [1] (setting [5]), the “continuous walking distance with an assistance” value is on record as “about 100 m”; the “steps of stairs walked up with an assistance and use of handrail” value stood at 15 steps. The “head MRI: novel vascular abnormality or progression of cerebral atrophy” value in experiment [1] (6 months after starting the administration, compared with MRI before starting) is on record as “did not detect any appearance of novel vascular abnormality or progression of cerebral atrophy”. In experiment [1] (7 months and 19 months after the beginning of iguratimod), the “head imaging by 3T-MRI:SWI: progression of cerebral atrophy and other lesions” value was “the progression of cerebral atrophy and other lesions was not apparent”. For the same molecule, the eating behavior result in experiment [1] (a half year after starting the administration) was “able to have meals by oneself using chopsticks”. Further, in experiment [1] (setting [6]), the “continuous walking distance with an assistance” value was “about 50 m” and the “steps of stairs walked up with an assistance at both arms” value is 8 steps. Besides, the “spontaneity and neurological symptoms” value in experiment [1] (iguratimod 25 mg added to high dose glucocorticoid, 2 days after starting the administration) is reported as “apparent amelioration of spontaneity was observed”. Moreover, the “mini-mental state examination (MMSE) score” value in experiment [1] (one year after starting oral administration, score before starting 10 or less (severe dementia)) was not below 10. Moreover, the “symptoms after steroid agent stopped completely” value in experiment [1] (one year after starting the administration of iguratimod) was “no aggravation of symptoms”. For the same molecule, in experiment [4] (5 months after starting the administration), the “head imaging: progression of cerebral atrophy” value is listed as “the progression of cerebral atrophy was not observed”. The “Scores of MMSE” value in experiment [4] (5 months after starting the administration, scores one year before 14 or less) is listed as not below 17. Further, the “symptoms in daily life” value in experiment [4] (iguratimod 25 mg/day, 50 mg/day after 4 weeks, 3 months after starting the administration) was “symptoms such as getting lost and failing to go home and purchasing the same thing repeatedly had disappeared”.
